PubChem BioAssay AID2060901 (Molecular Pharmacology Branch, DTP, NCI, 2025)

Tested on: 422866-222-R5-J1-PDC complex spheroids viability
Assay: Anticancer human tumor 422866-222-R5-J1-PDC patient-derived pancreatic adenocarcinoma cell line growth inhibition [RAS]
Conditions: for IC50: curve of first compound; for viability, T/C: stronger effect = lower value
Description: RAS pathway inhibitors in Combinations in Complex Spheroids
A high-throughput screen of multi-cell type tumor spheroids was designed to identify active combinations of RAS pathway inhibitors and targeted small molecules. Complex spheroids include a stromal component modeled by human endothelial cells (HUVEC) and fibroblasts modeled by human mesenchymal stem cells (MSCs). The concentration ranges selected for each drug and investigational agent were based upon clinically achievable concentrations if the clinical Cmax of the agent was known.
Compounds. The drugs and investigational agents: abemaciclib (NSC768073), cobimetinib (NSC768068), divarasib (GDC6063, NSC841802), docetaxel (NSC628503), GDC-1971 (RLY-1971, NSC841576), gemcitabine (NSC613327), inavolisib (NSC800729), ipatasertib (NSC767898), KB-0742 (NSC834161), MRTX-1133 (NSC836407), osimertinib (NSC779217), RMC-4630 (NSC839698), RMC-6236 (NSC851965), RMC-6291 (NSC852671), Ro-3306 (NSC812927), sapanisertib (NSC764658), SN-38 (NSC673596), staurosporine (NSC755774), SY5609 (NSC837396), and tovorafenib (DAY101, NSC766906), were obtained from the National Cancer Institute (NCI) Developmental Therapeutics Program Chemical Repository. The FDA-approved anticancer drug set is available from the NCI Developmental Therapeutics Program. […] The stock solutions were prepared in dimethyl sulfoxide (DMSO, Sigma-Aldrich, St. Louis, MO, cat. D2650) at 800-fold the tested concentration and stored at -70 degrees C prior to their use. All drugs and investigational agents were tested over a range starting from a high concentration at or near the clinical Cmax and decreasing in half-log increments. If the clinical Cmax for an agent had not been determined, the highest concentration tested was 10 microM.
Cell Culture. All cells were maintained in an incubator at 37 degrees C and 5% CO2 with 95% humidity. The PDC lines were cultured according to standard operating procedures established by the NCI PDMR. All PDCs were thawed and cultured in Matrigel-coated flasks prepared with a working solution of 1X Ham's F-12 nutrient mix, without supplementation (Invitrogen, Waltham, MA, cat. 11765054), 100 U/mL penicillin-streptomycin (Invitrogen, cat. 15140122), and 2.5% Matrigel (Corning Inc., Corning, NY, cat. 354248) for the first three passages. The 362531-283-R-J2-PDC and 782815-120-R-J1-PDC lines were cultured in 6C/Colon 1B media, which includes advanced DMEM/F-12 (Thermo Fisher Scientific, cat. 12634028), 10 mM HEPES (Thermo Fisher Scientific, cat. 15630080), 1X GlutaMAX supplement (Thermo Fisher Scientific, cat. 35050061), 0.1 mg/mL primocin (InvivoGen, San Diego, CA, cat. ant-pm-2), 10% defined fetal bovine serum, heat inactivated (HyClone Laboratories Inc., Logan, UT, cat. SH30070.03HI), 50% L-WRN conditioned media (ATCC, cat. CRL-3276), 1.25 mM N-Acetyl-L-cysteine (Sigma-Aldrich, cat. A9165), 10 mM nicotinamide (Sigma-Aldrich, cat. N0636), 1X B-27 supplement (Thermo Fisher Scientific, cat. 17504044), 1X N-2 supplement (Thermo Fisher Scientific, cat. 17502048), 50 ng/mL human EGF (Thermo Fisher Scientific, cat. PHG0311), and 10 microM Y-27632 dihydrochloride (Tocris Bioscience, cat. 1254). The K12877-001-R-J1-PDC line was cultured in 6I media, which includes all 6C/Colon 1B media plus 10 ng/mL human FGF-10 (PeproTech, cat. 100-26), 1 ng/mL human FGF-2 (PeproTech, cat. 100-18B), 1 µM prostaglandin E2 (Tocris Bioscience, cat. 2296), […] hydrocortisone (Sigma-Aldrich, cat. H4001), and […] bovine insulin (Sigma-Aldrich, cat. I6634). The K86415-001-R-J1-PDC line was cultured in 6D media, which includes all 6C/Colon 1B media components minus the L-WRN conditioned media. The 485176-168-R4-J1-PDC was cultured in PANC media, which includes all 6C/Colon 1B media plus 100 ng/mL human FGF-10 (PeproTech, cat. 100-26), 500 nM SB-431542 (Selleckchem, cat. S1067), and 10 nM gastrin (Tocris Bioscience, cat. 3006). […]

[1] = second compound 0.0316 µM, first compound 0.0316 µM
[2] = second compound 0.0316 µM, first compound 0.1 µM
[3] = second compound 0.1 µM, first compound 0.0316 µM
[4] = second compound 0.1 µM, first compound 0.1 µM
[5] = second compound 0.316 µM, first compound 0.0316 µM
[6] = second compound 0.316 µM, first compound 0.1 µM
[7] = second compound 1 µM, first compound 0.0316 µM
[8] = second compound 1 µM, first compound 0.1 µM
[9] = second compound 3.16 µM, first compound 0.0316 µM
[10] = second compound 3.16 µM, first compound 0.1 µM
[11] = second compound 10 µM, first compound 0.0316 µM
[12] = second compound 10 µM, first compound 0.1 µM
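Throughout, for viability, T/C: 100% = DMSO vehicle control viability.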

Question: Which IC50 (second compound 0.0316 µM) does the source give for `CC(C)n1nc(-c2ccc3oc(N)nc3c2)c2c(N)ncnc21` + C#Cc1c(F)ccc2cc(O)cc(-c3ncc4c(N5CC6CCC(C5)N6)nc(OCC56CCCN5CC(F)C6)nc4c3F)c12 here?
Answer: > 0.1 µM

Question: And the IC50 (second compound 0.1 µM)?
Answer: > 0.1 µM

Question: What about the IC50 (second compound 0.316 µM) of the same compound?
Answer: > 0.1 µM

Question: And the IC50 (second compound 1 µM)?
Answer: < 0.000316 µM

Question: And the IC50 (second compound 3.16 µM)?
Answer: < 0.000316 µM

Question: And the IC50 (second compound 10 µM)?
Answer: < 0.000316 µM

Question: And the viability, T/C (second compound 0.0316 µM, first compound 0.000316 µM)?
Answer: 90.6%

Question: And the viability, T/C (second compound 0.0316 µM, first compound 0.001 µM)?
Answer: 104%

Question: What about the viability, T/C (second compound 0.0316 µM, first compound 0.00316 µM) of the same compound?
Answer: 73.3%

Question: And the viability, T/C (second compound 0.0316 µM, first compound 0.01 µM)?
Answer: 54.9%

Question: And the viability, T/C [1]?
Answer: 77.6%

Question: And the viability, T/C [2]?
Answer: 68.4%

Question: What about the viability, T/C (second compound 0.1 µM, first compound 0.000316 µM) of the same compound?
Answer: 62.5%

Question: What about the viability, T/C (second compound 0.1 µM, first compound 0.001 µM) of the same compound?
Answer: 75.1%

Question: And the viability, T/C (second compound 0.1 µM, first compound 0.00316 µM)?
Answer: 65.4%

Question: What about the viability, T/C (second compound 0.1 µM, first compound 0.01 µM) of the same compound?
Answer: 54.6%

Question: And the viability, T/C [3]?
Answer: 80%

Question: And the viability, T/C [4]?
Answer: 56.8%

Question: And the viability, T/C (second compound 0.316 µM, first compound 0.000316 µM)?
Answer: 66.4%

Question: And the viability, T/C (second compound 0.316 µM, first compound 0.001 µM)?
Answer: 62.1%

Question: And the viability, T/C (second compound 0.316 µM, first compound 0.00316 µM)?
Answer: 60%

Question: What about the viability, T/C (second compound 0.316 µM, first compound 0.01 µM) of the same compound?
Answer: 49.7%

Question: And the viability, T/C [5]?
Answer: 58.6%

Question: And the viability, T/C [6]?
Answer: 61.7%

Question: And the viability, T/C (second compound 1 µM, first compound 0.000316 µM)?
Answer: 42.5%

Question: And the viability, T/C (second compound 1 µM, first compound 0.001 µM)?
Answer: 37.9%

Question: What about the viability, T/C (second compound 1 µM, first compound 0.00316 µM) of the same compound?
Answer: 28.2%

Question: What about the viability, T/C (second compound 1 µM, first compound 0.01 µM) of the same compound?
Answer: 26.7%

Question: And the viability, T/C [7]?
Answer: 44%

Question: What about the viability, T/C [8] of the same compound?
Answer: 48.5%

Question: And the viability, T/C (second compound 3.16 µM, first compound 0.000316 µM)?
Answer: 31.5%

Question: And the viability, T/C (second compound 3.16 µM, first compound 0.001 µM)?
Answer: 26%

Question: And the viability, T/C (second compound 3.16 µM, first compound 0.00316 µM)?
Answer: 25.8%

Question: What about the viability, T/C (second compound 3.16 µM, first compound 0.01 µM) of the same compound?
Answer: 19.8%

Question: And the viability, T/C [9]?
Answer: 20.9%

Question: And the viability, T/C [10]?
Answer: 19.3%

Question: What about the viability, T/C (second compound 10 µM, first compound 0.000316 µM) of the same compound?
Answer: 18.8%

Question: What about the viability, T/C (second compound 10 µM, first compound 0.001 µM) of the same compound?
Answer: 21.7%

Question: What about the viability, T/C (second compound 10 µM, first compound 0.00316 µM) of the same compound?
Answer: 17.4%

Question: And the viability, T/C (second compound 10 µM, first compound 0.01 µM)?
Answer: 15.2%

Question: What about the viability, T/C [11] of the same compound?
Answer: 18.1%

Question: What about the viability, T/C [12] of the same compound?
Answer: 15.1%

Question: Which IC50 (second compound 0.0316 µM) does the source give for `C[C@@H](NC(=O)c1ncnc(N)c1Cl)c1ncc(C(=O)Nc2cc(C(F)(F)F)c(Cl)cn2)s1` + C#Cc1c(F)ccc2cc(O)cc(-c3ncc4c(N5CC6CCC(C5)N6)nc(OCC56CCCN5CC(F)C6)nc4c3F)c12 here?
Answer: > 10 µM

Question: And the IC50 (second compound 0.1 µM)?
Answer: > 10 µM

Question: What about the IC50 (second compound 0.316 µM) of the same compound?
Answer: > 10 µM

Question: What about the IC50 (second compound 1 µM) of the same compound?
Answer: < 0.0316 µM

Question: What about the IC50 (second compound 3.16 µM) of the same compound?
Answer: < 0.0316 µM

Question: What about the IC50 (second compound 10 µM) of the same compound?
Answer: < 0.0316 µM

Question: And the viability, T/C [1]?
Answer: 108%

Question: And the viability, T/C [2]?
Answer: 114%

Question: What about the viability, T/C (second compound 0.0316 µM, first compound 0.316 µM) of the same compound?
Answer: 106%

Question: What about the viability, T/C (second compound 0.0316 µM, first compound 1 µM) of the same compound?
Answer: 117%

Question: What about the viability, T/C (second compound 0.0316 µM, first compound 3.16 µM) of the same compound?
Answer: 89%

Question: And the viability, T/C (second compound 0.0316 µM, first compound 10 µM)?
Answer: 57%

Question: And the viability, T/C [3]?
Answer: 103%

Question: What about the viability, T/C [4] of the same compound?
Answer: 88.3%

Question: And the viability, T/C (second compound 0.1 µM, first compound 0.316 µM)?
Answer: 89.2%

Question: What about the viability, T/C (second compound 0.1 µM, first compound 1 µM) of the same compound?
Answer: 74%

Question: What about the viability, T/C (second compound 0.1 µM, first compound 3.16 µM) of the same compound?
Answer: 85.3%

Question: What about the viability, T/C (second compound 0.1 µM, first compound 10 µM) of the same compound?
Answer: 58.3%

Question: What about the viability, T/C [5] of the same compound?
Answer: 68.8%

Question: And the viability, T/C [6]?
Answer: 67%

Question: What about the viability, T/C (second compound 0.316 µM, first compound 0.316 µM) of the same compound?
Answer: 72.2%

Question: What about the viability, T/C (second compound 0.316 µM, first compound 1 µM) of the same compound?
Answer: 55%

Question: What about the viability, T/C (second compound 0.316 µM, first compound 3.16 µM) of the same compound?
Answer: 72.8%

Question: And the viability, T/C (second compound 0.316 µM, first compound 10 µM)?
Answer: 48.1%

Question: And the viability, T/C [7]?
Answer: 43%

Question: And the viability, T/C [8]?
Answer: 44.5%

Question: What about the viability, T/C (second compound 1 µM, first compound 0.316 µM) of the same compound?
Answer: 45.4%

Question: And the viability, T/C (second compound 1 µM, first compound 1 µM)?
Answer: 39.7%

Question: And the viability, T/C (second compound 1 µM, first compound 3.16 µM)?
Answer: 49.6%

Question: And the viability, T/C (second compound 1 µM, first compound 10 µM)?
Answer: 46.7%

Question: And the viability, T/C [9]?
Answer: 29%

Question: And the viability, T/C [10]?
Answer: 28.4%

Question: And the viability, T/C (second compound 3.16 µM, first compound 0.316 µM)?
Answer: 40.1%

Question: And the viability, T/C (second compound 3.16 µM, first compound 1 µM)?
Answer: 28.3%

Question: And the viability, T/C (second compound 3.16 µM, first compound 3.16 µM)?
Answer: 33.1%

Question: And the viability, T/C (second compound 3.16 µM, first compound 10 µM)?
Answer: 27.9%

Question: What about the viability, T/C [11] of the same compound?
Answer: 24.3%

Question: And the viability, T/C [12]?
Answer: 22.6%

Question: What about the viability, T/C (second compound 10 µM, first compound 0.316 µM) of the same compound?
Answer: 24.8%

Question: What about the viability, T/C (second compound 10 µM, first compound 1 µM) of the same compound?
Answer: 24.4%

Question: What about the viability, T/C (second compound 10 µM, first compound 3.16 µM) of the same compound?
Answer: 23.9%

Question: What about the viability, T/C (second compound 10 µM, first compound 10 µM) of the same compound?
Answer: 24.5%
